Data reported in US20220380306A1, “ASTAXANTHIN ESTERS AND METHODS OF USE THEREOF” (CARDAX,INC., priority 2019, published 2022).

Key:
[1] = Hydrolysis of ADMG compared to ADSa in solution or under basic conditions (NaHCO3 / Na2CO3); type: physicochemical; conditions: 16 hours
Description: The mixture was stirred at room temperature or 50° C. The reaction was monitored by HPLC and LCMS after 16 hours. […] “Byproduct” indicates a material that was formed other than the diester, monoester, or free astaxanthin.

[2] = Hydrolysis of ADMG compared to ADSa under basic conditions with KOH; type: physicochemical; conditions: KOH 55.6 molar equivalents, room temperature
Description: KOH was added at 55.6 molar equivalents as a solution in 81:9:10 methanol:dichloromethane:water at room temperature. The solution was analyzed using HPLC over various time points for starting diester (A), hydrolyzed monoester (B) and free astaxanthin (C). Byproduct indicates an impurity formed that is none of A, B, or C.

[3] = methotrexate 15-20 mg/week vs. placebo; cited from earlier work
[4] = 20 mg/D rosuvastatin vs. placebo; patients who achieved a reduction in CRP<2.0; cited from earlier work
IL-1β = IL-1β (Homo sapiens, UniProt P01584); conditions: cited from earlier work
[5] = methanol + saturated aq Na2CO3, rt
[6] = methanol + saturated aq NaHCO3, 50° C.
[7] = methanol + saturated aq NaHCO3, rt
[8] = subjects with a reduction of CRP<2.0 mg/L (regardless of dose)

CC1=C(/C=C/C(C)=C/C=C/C(C)=C/C=C/C=C(C)/C=C/C=C(C)/C=C/C2=C(C)C(=O)[C@@H](OC(=O)CN(C)C)CC2(C)C)C(C)(C)C[C@H](OC(=O)CN(C)C)C1=O [ADMG, Astaxanthin Dimethyl Glycinate Diester]
C (free astaxanthin) ([1]; methanol + saturated aq Na2CO3, 50° C.): 92% C
B (hydrolyzed monoester) [1, 5]: 5% B
C (free astaxanthin) [1, 5]: 90% C
A (starting diester) [1, 6]: 33% A
B (hydrolyzed monoester) [1, 6]: 50% B
C (free astaxanthin) [1, 6]: 23% C
A (starting diester) [1, 7]: 64% A
B (hydrolyzed monoester) [1, 7]: 28% B
C (free astaxanthin) [1, 7]: 2% C
A (starting diester) ([1]; methanol, no base, rt): 75% A
Byproduct ([1]; methanol, no base, rt): 21% byproduct
A (starting diester) ([2]; time 0 hr): 93.7%
B (hydrolyzed monoester) ([2]; time 0 hr): 0.1%
Byproduct ([2]; time 0 hr): 0%
C (free astaxanthin) ([2]; time 0 hr): 0%
A (starting diester) ([2]; time 0.07 hr): 86.4%
B (hydrolyzed monoester) ([2]; time 0.07 hr): 7.3%
Byproduct ([2]; time 0.07 hr): 0%
C (free astaxanthin) ([2]; time 0.07 hr): 0.1%
A (starting diester) ([2]; time 0.65 hr): 36.1%
B (hydrolyzed monoester) ([2]; time 0.65 hr): 44.9%
Byproduct ([2]; time 0.65 hr): 0.1%
C (free astaxanthin) ([2]; time 0.65 hr): 13.2%
A (starting diester) ([2]; time 1.23 hr): 14.4%
B (hydrolyzed monoester) ([2]; time 1.23 hr): 44.6%
Byproduct ([2]; time 1.23 hr): 0.8%
C (free astaxanthin) ([2]; time 1.23 hr): 34.6%
A (starting diester) ([2]; time 1.80 hr): 5.5%
B (hydrolyzed monoester) ([2]; time 1.80 hr): 34.2%
Byproduct ([2]; time 1.80 hr): 1.4%
C (free astaxanthin) ([2]; time 1.80 hr): 53.0%
A (starting diester) ([2]; time 2.38 hr): 2.0%
B (hydrolyzed monoester) ([2]; time 2.38 hr): 23.4%
Byproduct ([2]; time 2.38 hr): 2.0%
C (free astaxanthin) ([2]; time 2.38 hr): 66.6%
A (starting diester) ([2]; time 2.97 hr): 0.7%
B (hydrolyzed monoester) ([2]; time 2.97 hr): 14.9%
Byproduct ([2]; time 2.97 hr): 2.7%
C (free astaxanthin) ([2]; time 2.97 hr): 75.4%
A (starting diester) ([2]; time 3.55 hr): 0.2%
B (hydrolyzed monoester) ([2]; time 3.55 hr): 9.2%
Byproduct ([2]; time 3.55 hr): 3.4%
C (free astaxanthin) ([2]; time 3.55 hr): 80.7%

CN(Cc1cnc2nc(N)nc(N)c2n1)c1ccc(C(=O)N[C@@H](CCC(=O)O)C(=O)O)cc1 [methotrexate]
cardiovascular events compared to placebo [3]: did not result in fewer cardiovascular events
levels of IL-1β, IL-6, or CRP [3]: did not reduce

CC(C)c1nc(N(C)S(C)(=O)=O)nc(-c2ccc(F)cc2)c1/C=C/[C@@H](O)C[C@@H](O)CC(=O)O [rosuvastatin]
reduction in vascular events [4]: 62%

Astaxanthin Sarcosine Diester [ADSa, reference compound]
A (starting diester) ([1]; methanol, no base, rt): 72% A
Byproduct ([1]; methanol, no base, rt): 16% byproduct
A (starting diester) ([2]; time 0 hr): 91.4%
B (hydrolyzed monoester) ([2]; time 0 hr): 0.5%
Byproduct ([2]; time 0 hr): 0%
C (free astaxanthin) ([2]; time 0 hr): 0%
A (starting diester) ([2]; time 0.05 hr): 24.0%
B (hydrolyzed monoester) ([2]; time 0.05 hr): 46.8%
Byproduct ([2]; time 0.05 hr): 1.3%
C (free astaxanthin) ([2]; time 0.05 hr): 22.2%
A (starting diester) ([2]; time 0.62 hr): 0%
B (hydrolyzed monoester) ([2]; time 0.62 hr): 0.5%
Byproduct ([2]; time 0.62 hr): 3.8%
C (free astaxanthin) ([2]; time 0.62 hr): 90.8%

canakinumab: monoclonal antibody that targets IL-1β
deaths from infection (mostly tuberculosis) (IL-1β; active treatment groups vs. placebo): more deaths from infection
CRP and IL-6 levels (IL-1β; patients with active treatment): reduction
lipids (IL-1β; patients with active treatment): no change
reduction in cardiovascular death and all-cause mortality (IL-1β; [8]): 31%
reduction in the primary end point (composite of myocardial infarction, stroke, or cardiovascular death) (IL-1β; [8]): 25%
